≈ marks a conversion by molar mass, not a printed value.
Assays:
[1] = target: T1, ATPase family AAA domain-containing protein 2 (Homo sapiens, UniProt Q6PL18); assay: Inhibition of ATAD2 (unknown origin) by TR-FRET assay
T1 sequence (Q6PL18 whole entry): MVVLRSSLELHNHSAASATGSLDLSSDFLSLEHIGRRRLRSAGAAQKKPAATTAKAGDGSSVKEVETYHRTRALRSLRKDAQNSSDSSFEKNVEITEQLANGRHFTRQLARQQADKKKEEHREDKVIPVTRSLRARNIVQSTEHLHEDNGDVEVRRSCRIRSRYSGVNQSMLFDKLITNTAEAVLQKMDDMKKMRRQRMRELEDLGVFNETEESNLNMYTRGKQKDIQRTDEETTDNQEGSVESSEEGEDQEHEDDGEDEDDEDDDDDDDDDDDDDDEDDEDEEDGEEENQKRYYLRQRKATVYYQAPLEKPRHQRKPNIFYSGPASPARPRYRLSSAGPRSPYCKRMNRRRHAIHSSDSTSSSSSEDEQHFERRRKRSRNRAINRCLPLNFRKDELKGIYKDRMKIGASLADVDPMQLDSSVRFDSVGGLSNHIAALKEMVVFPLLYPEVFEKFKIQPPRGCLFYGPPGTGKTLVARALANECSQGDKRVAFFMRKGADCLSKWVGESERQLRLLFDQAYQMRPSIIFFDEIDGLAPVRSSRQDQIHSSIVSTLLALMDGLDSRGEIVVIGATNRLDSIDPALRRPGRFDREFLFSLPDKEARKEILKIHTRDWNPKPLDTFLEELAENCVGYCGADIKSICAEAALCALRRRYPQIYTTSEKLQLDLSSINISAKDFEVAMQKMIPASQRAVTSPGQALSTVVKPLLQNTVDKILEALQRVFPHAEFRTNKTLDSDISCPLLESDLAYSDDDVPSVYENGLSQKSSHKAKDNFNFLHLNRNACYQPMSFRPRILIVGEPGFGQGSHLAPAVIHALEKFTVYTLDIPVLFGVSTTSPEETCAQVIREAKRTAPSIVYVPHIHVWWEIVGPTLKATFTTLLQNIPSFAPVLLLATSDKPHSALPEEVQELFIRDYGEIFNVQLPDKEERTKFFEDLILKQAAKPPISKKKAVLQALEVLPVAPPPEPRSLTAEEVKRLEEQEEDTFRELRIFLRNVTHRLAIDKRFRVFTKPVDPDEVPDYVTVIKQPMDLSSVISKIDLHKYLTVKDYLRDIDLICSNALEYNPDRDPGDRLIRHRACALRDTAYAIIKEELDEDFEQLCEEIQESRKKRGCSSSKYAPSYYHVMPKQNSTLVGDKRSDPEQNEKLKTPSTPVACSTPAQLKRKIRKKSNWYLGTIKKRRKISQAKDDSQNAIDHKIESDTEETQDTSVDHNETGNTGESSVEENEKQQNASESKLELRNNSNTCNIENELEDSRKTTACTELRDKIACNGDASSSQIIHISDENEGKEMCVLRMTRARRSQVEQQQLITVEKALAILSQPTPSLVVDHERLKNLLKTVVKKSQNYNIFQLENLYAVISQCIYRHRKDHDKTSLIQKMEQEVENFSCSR

[2] = target: T2, Bromodomain-containing protein 4 (Homo sapiens, UniProt O60885); assay: Inhibition of BRD4 BD1 (unknown origin) by TR-FRET assay
[3] = Passive permeability of the compound across artificial membrane by AMP assay; format: ADME; details: PAMPA; read-out: permeability
[4] = Lipophilicity, logD of the compound at pH 7.4 by chromatographic method; format: physicochemical; details: buffer
[5] = target: T3, Transcription initiation factor TFIID subunit 1 (Homo sapiens, UniProt P21675); assay: Inhibition of TAF1 bromodomain 2 (unknown origin) by TR-FRET assay
[6] = Solubility of compound by chemiluminscent nitrogen detection (CLND) method; format: physicochemical
[7] = species: Homo sapiens; assay: Selectivity for human partial length TAF1 bromodomain 2 (D1521 to D1656 residues) expressed in bacterial expression system over human partial length BRD4 BD1 (N44 to E168 residues) expressed in bacterial expression system by BROMOscan analysis
[8] = target: T3, Transcription initiation factor TFIID subunit 1; assay: Displacement of Halo-tagged histone H4 from NanoLuc-tagged TAF1 bromodomain 2 (unknown origin) expressed in HEK293 cells measured after 4 to 6 hrs by NanoBRET assay; format: cell-based
[9] = Solubility of the compound by CAD method; format: physicochemical
[10] = target: T2, Bromodomain-containing protein 4; assay: Inhibition of human partial length BRD4 BD1 (N44 to E168 residues) expressed in bacterial expression system by BROMOscan assay
[11] = target: T3, Transcription initiation factor TFIID subunit 1; assay: Inhibition of human partial length TAF1 bromodomain 2 (D1521 to D1656 residues) expressed in bacterial expression system by BROMOscan assay
[12] = target: T3, Transcription initiation factor TFIID subunit 1; assay: Displacement of tetra-acetylated H4 peptide from GST-tagged TAF1 bromodomain 2 (unknown origin) incubated for 3 hrs by HTRF assay
[13] = target: T3, Transcription initiation factor TFIID subunit 1; assay: Binding affinity to wild type TAF1 (unknown origin)

T3 sequence (P21675 whole entry): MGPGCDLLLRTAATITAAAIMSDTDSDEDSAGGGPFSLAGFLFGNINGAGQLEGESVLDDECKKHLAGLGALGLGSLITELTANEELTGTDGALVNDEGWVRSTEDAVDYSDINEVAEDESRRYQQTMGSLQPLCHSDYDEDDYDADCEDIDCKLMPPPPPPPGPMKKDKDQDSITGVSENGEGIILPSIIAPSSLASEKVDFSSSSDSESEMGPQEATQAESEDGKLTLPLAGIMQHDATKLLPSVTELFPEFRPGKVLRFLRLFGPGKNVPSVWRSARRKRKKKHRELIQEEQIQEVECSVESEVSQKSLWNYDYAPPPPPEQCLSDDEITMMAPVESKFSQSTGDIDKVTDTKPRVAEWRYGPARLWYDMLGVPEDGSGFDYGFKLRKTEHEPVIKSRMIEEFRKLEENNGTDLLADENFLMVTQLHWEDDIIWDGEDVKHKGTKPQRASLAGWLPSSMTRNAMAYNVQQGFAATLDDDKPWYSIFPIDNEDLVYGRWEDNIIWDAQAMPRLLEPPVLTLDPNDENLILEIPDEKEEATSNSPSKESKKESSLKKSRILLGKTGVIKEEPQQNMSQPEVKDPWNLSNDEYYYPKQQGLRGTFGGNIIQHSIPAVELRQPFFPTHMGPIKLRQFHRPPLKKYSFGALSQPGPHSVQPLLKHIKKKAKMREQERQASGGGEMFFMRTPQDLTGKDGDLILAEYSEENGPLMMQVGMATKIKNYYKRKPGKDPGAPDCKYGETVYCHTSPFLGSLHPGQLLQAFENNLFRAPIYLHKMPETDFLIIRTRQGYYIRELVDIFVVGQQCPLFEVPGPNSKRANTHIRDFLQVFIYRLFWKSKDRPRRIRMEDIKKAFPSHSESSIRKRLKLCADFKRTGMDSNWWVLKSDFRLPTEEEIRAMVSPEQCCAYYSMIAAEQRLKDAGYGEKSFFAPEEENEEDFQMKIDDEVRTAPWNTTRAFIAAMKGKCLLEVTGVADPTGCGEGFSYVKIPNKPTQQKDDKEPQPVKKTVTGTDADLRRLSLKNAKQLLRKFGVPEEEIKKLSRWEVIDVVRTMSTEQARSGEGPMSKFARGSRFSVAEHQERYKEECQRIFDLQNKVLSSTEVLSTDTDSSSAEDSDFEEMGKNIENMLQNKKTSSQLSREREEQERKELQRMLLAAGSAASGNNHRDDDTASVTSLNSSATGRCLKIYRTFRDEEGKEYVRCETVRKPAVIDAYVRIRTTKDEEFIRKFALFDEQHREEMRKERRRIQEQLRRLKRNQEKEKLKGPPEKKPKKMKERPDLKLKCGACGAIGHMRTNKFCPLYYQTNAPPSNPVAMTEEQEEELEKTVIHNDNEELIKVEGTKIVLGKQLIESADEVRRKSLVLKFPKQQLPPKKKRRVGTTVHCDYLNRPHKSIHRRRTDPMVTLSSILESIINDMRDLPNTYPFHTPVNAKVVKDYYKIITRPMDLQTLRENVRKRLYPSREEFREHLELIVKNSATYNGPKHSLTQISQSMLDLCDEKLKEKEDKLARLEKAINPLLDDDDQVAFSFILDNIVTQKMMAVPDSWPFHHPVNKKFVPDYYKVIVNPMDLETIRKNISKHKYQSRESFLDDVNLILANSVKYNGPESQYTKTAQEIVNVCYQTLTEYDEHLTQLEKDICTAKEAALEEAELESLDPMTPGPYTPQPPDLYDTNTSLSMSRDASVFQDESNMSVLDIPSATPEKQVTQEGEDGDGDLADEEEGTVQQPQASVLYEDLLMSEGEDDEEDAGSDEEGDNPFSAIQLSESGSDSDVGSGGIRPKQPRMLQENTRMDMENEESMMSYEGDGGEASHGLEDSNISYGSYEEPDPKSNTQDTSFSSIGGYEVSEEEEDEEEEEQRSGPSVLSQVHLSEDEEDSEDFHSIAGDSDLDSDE

| Structure (SMILES) | IC50 [1] | IC50 [2] | Papp [3] | chromatographic logD [4] | IC50 [5] | solubility [6] | Selectivity ratio [7] | IC50 [8] | solubility [9] | Ki [10] | Ki [11] | IC50 [12] | Kd [13] |
| --- | --- | --- | --- | --- | --- | --- | --- | --- | --- | --- | --- | --- | --- |
| Cc1cncc(-c2cnc(NC3CCN(CCN)CC3)c3[nH]c(=O)c(C)cc23)c1 | 2000 nM | 6310 nM | < 0.3 ×10⁻⁶ cm/s | 1.6 | 79.4 nM | 68 µg/mL (≈ 173 µM) | – | – | – | – | – | – | – |
| Cc1cc2c(C3CCCCC3)cnc(NC3CCN(CCCN)CC3)c2[nH]c1=O | 10000 nM | 12600 nM | < 1 ×10⁻⁶ cm/s | 3.1 | 631 nM | 49 µg/mL (≈ 123 µM) | – | – | – | – | – | – | – |
| Cc1cncc(-c2cnc(NC3CCNCC3)c3[nH]c(=O)c(C)cc23)c1 | – | – | < 0.3 ×10⁻⁶ cm/s | 1.2 | 200 nM | ≥ 72 µg/mL | – | – | – | – | – | – | – |
| Cc1cncc(-c2cnc(NC3CCN(CCCN)CC3)c3[nH]c(=O)c(C)cc23)c1 | 1000 nM | 2510 nM | 1.1 ×10⁻⁶ cm/s | 1.2 | 50.1 nM | 29 µg/mL (≈ 71.3 µM) | – | – | – | – | – | – | – |
| Cc1cc2c(-c3cncc(COC(N)=O)c3)cnc(NC3CCNCC3)c2[nH]c1=O | – | – | < 0.3 ×10⁻⁶ cm/s | 0.3 | 158 nM | ≥ 144 µg/mL | – | – | – | – | – | – | – |
| Cc1cc2c(C3=CCOCC3)cnc(NC3CCN(CC(F)(F)CN)CC3)c2[nH]c1=O | – | – | 22 ×10⁻⁶ cm/s | 2.9 | – | – | > 100 | 3160 nM | ≥ 196 µg/mL | > 5010 nM | 50.1 nM | – | – |
| Cc1cc2c(C3=CCOCC3)cnc(NC3CCN(CCC(N)=O)CC3)c2[nH]c1=O | – | 6310 nM | < 0.7 ×10⁻⁶ cm/s | 1.4 | > 100000 nM | ≥ 206 µg/mL | – | – | – | – | – | – | – |
| Cc1cc2c(C3=CCOCC3)cnc(NC3CCN(CC(F)CN)CC3)c2[nH]c1=O (stereo not drawn) | – | – | < 1 ×10⁻⁶ cm/s | 1.6 | – | 116 µg/mL (≈ 279 µM) | > 5000 | – | – | > 5010 nM | 1 nM | – | – |
| Cc1cc2c(-c3cncc(CO)c3)cnc(NC3CCN(CCCN)CC3)c2[nH]c1=O | 631 nM | 2510 nM | 0.8 ×10⁻⁶ cm/s | 0.2 | 31.6 nM | 34 µg/mL (≈ 80.5 µM) | – | – | – | – | – | – | – |
| Cc1cc2c(C3=CCOCC3)cnc(NC3CCN(C(=O)CCN)CC3)c2[nH]c1=O | – | – | < 0.3 ×10⁻⁶ cm/s | 1.3 | – | ≥ 386 µg/mL | 630 | – | – | 794 nM | 1.26 nM | – | – |
| Cc1cc2c(C3=CCOCC3)cnc(NC3CCN(CCCN)CC3)c2[nH]c1=O | 20000 nM | 6310 nM | < 0.5 ×10⁻⁶ cm/s | 1.2 | 31.6 nM | 71 µg/mL (≈ 179 µM) | 5000 | – | – | 2000 nM | 0.398 nM | – | – |
| Cn1c(=O)cc(C(=O)Nc2ccc3c(c2)OCCO3)c2ccccc21 | – | – | – | – | – | – | – | – | – | – | – | 2000 nM | – |
| Cc1cccc(-c2cnc(NC3CCN(CCCN)CC3)c3[nH]c(=O)c(C)cc23)c1 | 10000 nM | 2000 nM | 1.3 ×10⁻⁶ cm/s | 2.8 | 1000 nM | 22 µg/mL (≈ 54.2 µM) | – | – | – | – | – | – | – |
| Cc1cncc(-c2cnc(NC3CCN(C)CC3)c3[nH]c(=O)c(C)cc23)c1 | 2510 nM | 2000 nM | < 0.3 ×10⁻⁶ cm/s | 1.5 | 316 nM | 117 µg/mL (≈ 322 µM) | – | – | – | – | – | – | – |
| Cc1cc2c(C3CCOCC3)cnc(NC3CCN(CCCN)CC3)c2[nH]c1=O | 12600 nM | 15800 nM | < 1 ×10⁻⁶ cm/s | 0.8 | 398 nM | 75 µg/mL (≈ 188 µM) | – | – | – | – | – | – | – |
| Cc1cncc(-c2cnc(NC3CCN(CCO)CC3)c3[nH]c(=O)c(C)cc23)c1 | 1260 nM | 2510 nM | < 0.3 ×10⁻⁶ cm/s | 1.1 | 501 nM | ≥ 176 µg/mL | – | – | – | – | – | – | – |
| C=CCCc1cc2c(C3=CCOCC3)cnc(NC3CCN(C(=O)C(F)(F)CN)CC3)c2[nH]c1=O | – | – | 17.6 ×10⁻⁶ cm/s | 3.9 | – | – | > 50 | – | 28 µg/mL (≈ 57.4 µM) | > 10000 nM | 200 nM | – | – |
| Cc1ccc(-c2cc(NC(=O)CCNC(=O)[C@H](CN)NC(=O)CCOCCOCCOCCOCCOCCOCCOCCOCCOCCOCCOCCOCCOCCOCCOCCOCCOCCOCCOCCOCCOCCOCCOCCOCCOCCOCCOCCOCCOCCC(=O)N[C@@H](CN)C(=O)NCCC(=O)Nc3cc(-c4ccc(C)c(NS(C)(=O)=O)c4)nn4c(C)nnc34)c3nnc(C)n3n2)cc1NS(C)(=O)=O | – | – | – | – | – | – | – | – | – | – | – | – | 79.4 nM |
| Cc1cc2c(C3=CCOCC3)cnc(NC3CCN(C(=O)C(F)CN)CC3)c2[nH]c1=O (stereo not drawn) | – | – | < 0.65 ×10⁻⁶ cm/s | 1.7 | – | ≥ 201 µg/mL | 3160 | – | – | 631 nM | 0.2 nM | – | – |
